{
  "source": "patent US20250368633A1",
  "about": "“AZEPINE FUSED RING COMPOUND AS RIPK1 INHIBITOR AND USE THEREOF” (ARTIVILA BIOPHARMA, priority 2022, published 2025)",
  "key": {"RIPK1 kinase [1]": {"target": "T1, RIPK1 kinase (Homo sapiens, UniProt Q13546)", "T1 construct": "purchased Promega VA7593", "T1 sequence (Q13546 1-671)": "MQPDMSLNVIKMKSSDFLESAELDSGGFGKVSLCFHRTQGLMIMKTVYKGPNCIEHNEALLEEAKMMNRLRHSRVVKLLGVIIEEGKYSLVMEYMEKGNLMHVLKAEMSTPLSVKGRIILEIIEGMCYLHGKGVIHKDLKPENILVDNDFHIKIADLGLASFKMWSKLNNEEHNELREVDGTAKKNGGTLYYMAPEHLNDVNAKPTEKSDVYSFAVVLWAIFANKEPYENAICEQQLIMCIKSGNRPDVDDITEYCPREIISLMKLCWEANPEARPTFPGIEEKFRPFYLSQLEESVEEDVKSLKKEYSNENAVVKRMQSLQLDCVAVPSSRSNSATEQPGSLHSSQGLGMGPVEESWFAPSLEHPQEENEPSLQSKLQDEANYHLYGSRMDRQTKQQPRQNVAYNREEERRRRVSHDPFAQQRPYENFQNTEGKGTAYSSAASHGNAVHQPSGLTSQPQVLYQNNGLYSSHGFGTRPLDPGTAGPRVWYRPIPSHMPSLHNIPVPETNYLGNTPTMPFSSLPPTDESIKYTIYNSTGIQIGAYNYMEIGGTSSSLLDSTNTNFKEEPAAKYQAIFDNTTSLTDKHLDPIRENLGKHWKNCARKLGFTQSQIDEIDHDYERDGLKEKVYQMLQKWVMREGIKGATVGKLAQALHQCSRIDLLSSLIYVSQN", "experiment": "In vitro RIPK1 kinase activity IC50 assay (ADP-Glo)", "format": "biochemical", "details": "ATP 10 μM; MBP substrate 100 μg/mL; 8 concentration points; read-out: IC50 range of compounds for RIPK1 kinase activity", "how_it_was_run": "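Human RIPK1 preincubated 15 min at room temperature with compound (8-point 1:5 dilution series, 1% DMSO in kinase buffer D). Reaction then ran 1 h with 10 μM ATP and 100 μg/mL MBP substrate; ADP measured by ADP-Glo luminescence, IC50 from four-parameter nonlinear fit.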"}, "U937 cells": {"test_system": "U937 cells", "experiment": "Inhibition rate of compound (1 μM) on necroptosis of U937 cells (TSZ-induced, CellTiter-Glo)", "format": "cell-based", "details": "TSZ (hTNF-α, SM-164, Z-VAD-FMK) 20 hours", "how_it_was_run": "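Percent inhibition comes from ATP luminescence (CellTiter-Glo), referenced to wells without TSZ and wells with TSZ alone. The compound was added to U937 cells 15 min ahead of a TNF-α/SM-164/Z-VAD-FMK mix, followed by 20 h culture at 37° C, 5% CO2.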"}, "RIPK1 kinase [2]": {"target": "T1, RIPK1 kinase", "experiment": "In vitro RIPK1 kinase activity assay (ADP-Glo), inhibition by compounds at 1 μM", "format": "biochemical", "details": "compound 1 μM; ATP 10 μM; MBP substrate 100 μg/mL; read-out: RIPK1 kinase activity inhibition rate range", "how_it_was_run": "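Read by ADP-Glo chemiluminescence as percent inhibition: RIPK1 kinase, 15-min room-temperature compound preincubation, then 1-h reaction with MBP (100 μg/mL final) and ATP (10 μM final). Enzyme level was set by titration.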"}},
  "data": [
    {"molecule": "CN1C(=O)C(NC(=O)C(=O)NCCc2ccccc2)CCc2ccc(C#CC3CC3)cc21", "note": "(stereo not drawn) [Example 62, N^1-(8-(cyclopropylethynyl)-1-methyl-2-oxo-2,3,4,5-tetrahydro-1H-benzo[b]azepin-3-yl)-N^2-phenethyloxalamide]", "values": [
      {"measurement": "IC50", "setting": "RIPK1 kinase [1]", "result": "< 100", "unit": "nM"},
      {"measurement": "Inhibition rate range of compounds (1 μM) on U937 cell necroptosis", "setting": "U937 cells", "result": "A (A: ≥90%)"},
      {"measurement": "inhibition at 1 µM", "setting": "RIPK1 kinase [2]", "result": "≥ 75", "unit": "%"}
    ]},
    {"molecule": "CN1C(=O)C(NC(=O)C(=O)NCCc2ccccc2)CCc2ccc(C#CCCO)cc21", "note": "(stereo not drawn) [Example 65, N^1-(8-(4-hydroxybut-1-yn-1-yl)-1-methyl-2-oxo-2,3,4,5-tetrahydro-1H-benzo[b]azepin-3-yl)-N^2-phenethyloxalamide]", "values": [
      {"measurement": "IC50", "setting": "RIPK1 kinase [1]", "result": "< 100", "unit": "nM"},
      {"measurement": "Inhibition rate range of compounds (1 μM) on U937 cell necroptosis", "setting": "U937 cells", "result": "A (A: ≥90%)"},
      {"measurement": "inhibition at 1 µM", "setting": "RIPK1 kinase [2]", "result": "≥ 75", "unit": "%"}
    ]},
    {"molecule": "CN1C(=O)C(NC(=O)C(=O)NCCc2ccccc2)CCc2ccc(C#CC3CCNCC3)cc21", "note": "(stereo not drawn) [Example 66, N^1-(1-methyl-2-oxo-8-(piperidin-4-ylethynyl)-2,3,4,5-tetrahydro-1H-benzo[b]azepin-3-yl)-N^2-phenethyloxalamide]", "values": [
      {"measurement": "IC50", "setting": "RIPK1 kinase [1]", "result": "< 100", "unit": "nM"},
      {"measurement": "Inhibition rate range of compounds (1 μM) on U937 cell necroptosis", "setting": "U937 cells", "result": "A (A: ≥90%)"},
      {"measurement": "inhibition at 1 µM", "setting": "RIPK1 kinase [2]", "result": "50 to 74", "unit": "%"}
    ]},
    {"molecule": "CN1C(=O)[C@@H](NC(=O)C(=O)NCCc2ccccc2)COc2ccc(C#CC3CCN(CC#N)CC3)cc21", "note": "[Example 74, (S)—N^1-(7-((1-(cyanomethyl)piperidin-4-yl)ethynyl)-5-methyl-4-oxo-2,3,4,5-tetrahydrobenzo[b][1, 4]oxazepin-3-yl)-N^2-phenethyloxalamide]", "values": [
      {"measurement": "IC50", "setting": "RIPK1 kinase [1]", "result": "< 100", "unit": "nM"},
      {"measurement": "Inhibition rate range of compounds (1 μM) on U937 cell necroptosis", "setting": "U937 cells", "result": "A (A: ≥90%)"},
      {"measurement": "inhibition at 1 µM", "setting": "RIPK1 kinase [2]", "result": "50 to 74", "unit": "%"}
    ]},
    {"molecule": "CN1C(=O)[C@@H](NC(=O)C(=O)NCCc2ccccc2)COc2ccc(C#CC3COC3)cc21", "note": "[Example 76, (S)—N^1-(5-methyl-7-(oxetan-3-ylethynyl)-4-oxo-2,3,4,5-tetrahydrobenzo[b][1,4]oxazepin-3-yl)-N^2-phenethyloxalamide]", "values": [
      {"measurement": "IC50", "setting": "RIPK1 kinase [1]", "result": "< 100", "unit": "nM"},
      {"measurement": "Inhibition rate range of compounds (1 μM) on U937 cell necroptosis", "setting": "U937 cells", "result": "A (A: ≥90%)"},
      {"measurement": "inhibition at 1 µM", "setting": "RIPK1 kinase [2]", "result": "50 to 74", "unit": "%"}
    ]},
    {"molecule": "CN1C(=O)[C@H](NC(=O)C(=O)NCCc2ccccc2)COc2ccc(C#CC3(O)COC3)cc21", "note": "[Example 77, (R)—N^1-(7-((3-hydroxyoxetan-3-yl)ethynyl)-5-methyl-4-oxo-2,3,4,5-tetrahydrobenzo[b][1,4]oxazepin-3-yl)-N^2-phenethyloxalamide]", "values": [
      {"measurement": "IC50", "setting": "RIPK1 kinase [1]", "result": "< 100", "unit": "nM"},
      {"measurement": "Inhibition rate range of compounds (1 μM) on U937 cell necroptosis", "setting": "U937 cells", "result": "A (A: ≥90%)"},
      {"measurement": "inhibition at 1 µM", "setting": "RIPK1 kinase [2]", "result": "50 to 74", "unit": "%"}
    ]},
    {"molecule": "COC1(C#Cc2ccc3c(c2)N(C)C(=O)[C@@H](NC(=O)C(=O)NCCc2ccccc2)CO3)COC1", "note": "[Example 78, (S)—N^1-(7-((3-methoxyoxetan-3-yl)ethynyl)-5-methyl-4-oxo-2,3,4,5-tetrahydrobenzo[b][1,4]oxazepin-3-yl)-N^2-phenethyloxalamide]", "values": [
      {"measurement": "IC50", "setting": "RIPK1 kinase [1]", "result": "< 100", "unit": "nM"},
      {"measurement": "Inhibition rate range of compounds (1 μM) on U937 cell necroptosis", "setting": "U937 cells", "result": "A (A: ≥90%)"},
      {"measurement": "inhibition at 1 µM", "setting": "RIPK1 kinase [2]", "result": "50 to 74", "unit": "%"}
    ]},
    {"molecule": "CN1C(=O)[C@@H](NC(=O)C(=O)NCCc2ccccc2)COc2ccc(C#CCC3(O)COC3)cc21", "note": "[Example 79, (S)—N^1-(7-(3-(3-hydroxyoxetan-3-yl)prop-1-yn-1-yl)-5-methyl-4-oxo-2,3,4,5-tetrahydrobenzo[b][1,4]oxazepin-3-yl)-N^2-phenethyloxalamide]", "values": [
      {"measurement": "IC50", "setting": "RIPK1 kinase [1]", "result": "< 100", "unit": "nM"},
      {"measurement": "Inhibition rate range of compounds (1 μM) on U937 cell necroptosis", "setting": "U937 cells", "result": "A (A: ≥90%)"},
      {"measurement": "inhibition at 1 µM", "setting": "RIPK1 kinase [2]", "result": "50 to 74", "unit": "%"}
    ]},
    {"molecule": "CN1C(=O)[C@@H](NC(=O)C(=O)NCCc2ccccc2)COc2ccc(C#CC3(O)CCOC3)cc21", "note": "(stereo partly drawn) [Example 80, N^1-((3S)-7-((3-hydroxytetrahydrofuran-3-yl)ethynyl)-5-methyl-4-oxo-2,3,4,5-tetrahydrobenzo[b][1,4]oxazepin-3-yl)-N^2-phenethyloxalamide]", "values": [
      {"measurement": "IC50", "setting": "RIPK1 kinase [1]", "result": "< 100", "unit": "nM"},
      {"measurement": "Inhibition rate range of compounds (1 μM) on U937 cell necroptosis", "setting": "U937 cells", "result": "A (A: ≥90%)"},
      {"measurement": "inhibition at 1 µM", "setting": "RIPK1 kinase [2]", "result": "≥ 75", "unit": "%"}
    ]}
  ]
}
